Source: publication PMC10584170, “Machine learning-based phenotypic imaging to characterise the targetable biology of Plasmodium falciparum male gametocytes for the development of transmission-blocking antimalarials” (PLOS Pathogens, 2023)

Columns and labels:
[1] = system: P. falciparum male gametocytes; assay: P. falciparum Dual Gamete Formation Assay (PfDGFA), male readout (exflagellation); type: cell-based, Plasmodium falciparum NF54; conditions: for Average inhibition male (%): average of replicates; for % inhibition male (individual replicates) R1: replicate R1; for % inhibition male (individual replicates) R3: replicate R3; for % inhibition male (individual replicates) R4: replicate R4; for Activity: hit = >50% inhibition in male or female readout in at least 3 replicates, 0 = no class assigned
Experimental: (§1) P. falciparum NF54 (originally isolated from an imported malaria case in the Netherlands in the 1980s; BEI Resources, cat. No. MRA-1000) strain asexual parasites were maintained between 0.3–5% parasitaemia by regular passage in complete culture medium (RPMI supplemented with 25 mM HEPES, 50 μg ml^−1 hypoxanthine, 4.8 g l^−1 NaHCO3, 2mM L-glutamine, 5% pooled type AB serum, 0.5% Albumax II (Gibco)) at 4% haematocrit in washed whole blood (National Blood and Transfusion Service or Centro de Transfusiones de la Comunidad de Madrid CTCM) under a 1% O2/3% CO2/96% N2 environment. Gametocytes were induced by seeding culture flasks at 2% parasitaemia/4% haematocrit and subjecting them to daily medium changes for 14 days whilst maintaining a temperature of 37°C at all times. On Day 14, the maturity of gametocytes was assessed by quantifying male gametogenesis (exflagellation). A 20 μl sample of gametocyte culture was mixed with equal volume of ookinete medium (complete culture medium supplemented with 0.1 μM xanthurenic acid) at room temperature and transferred to a haemocytometer. After 20 min at room temperature, exflagellation was accurately quantified as described in Delves et al. 2016 [17].
(§2) The Pf DGFA was performed as described in Delves et al. 2016 [17]. […] Plates were then incubated for 24 h at 37°C in a humidified box under a 1% O2/3% CO2/96% N2 gas mix. Gametogenesis was triggered by addition of 10 μl per well of ookinete medium + 0.27 μg ml^-1 Cy3-labelled anti-Pfs25 antibody. Plates were incubated on a metal block at 4°C for 4 min to ensure even cooling, then 28°C for a further 4 min. Exflagellation was recorded by capturing 10 frames over 1 s under brightfield illumination using a x4 objective with a 1.5x zoom (effectively x6) attached to an automated Nikon Ti fluorescence microscope. After recording exflagellation, plates were incubated for a further 24 h in the dark at 28°C to ensure maximal expression of Pfs25 by female gametes. The plates were then returned to the microscope and female gametes imaged at x6 using fluorescence microscopy.
(§3) Exflagellation centres and female gametes were quantified using custom image analysis pipelines developed within ICY Bioimage Analysis (https://icy.bioimageanalysis.org/).

[2] = system: P. falciparum female gametocytes; assay: P. falciparum Dual Gamete Formation Assay (PfDGFA), female readout (Pfs25-positive female gametes); type: cell-based, Plasmodium falciparum NF54; conditions: for Average inhibition female (%): average of replicates; for % inhibition female (individual replicates) R1: replicate R1; for % inhibition female (individual replicates) R3: replicate R3; for % inhibition female (individual replicates) R4: replicate R4
Experimental: as §1, §2, §3

[3] = 2µM, 24h preincubation with gametocytes prior to induction of gametogenesis
[4] = 2µM, 24h preincubation, number of replicates with >50% inhibition in the male readout
[5] = 2µM, 24h preincubation, number of replicates with >50% inhibition in the female readout
[6] = PfDGFA at 2µM, 24h preincubation with gametocytes
[7] = 2µM, 24h preincubation, hits selected on >50% inhibition in the male readout across replicates
[8] = PfDGFA at 2µM, 24h preincubation
[9] = 2µM, 24h preincubation, hits selected on >50% inhibition in the female readout across replicates
[10] = PfDGFA at 2µM, 24h preincubation with gametocytes prior to induction of gametogenesis

SMILES | Average inhibition male (%) [1, 3] [%] | % inhibition male (individual replicates) R1 [1, 3] [%] | % inhibition male (individual replicates) R3 [1, 3] [%] | % inhibition male (individual replicates) R4 [1, 3] [%] | HitlevelM [1, 4] | Average inhibition female (%) [2, 3] [%] | % inhibition female (individual replicates) R1 [2, 3] [%] | % inhibition female (individual replicates) R3 [2, 3] [%] | % inhibition female (individual replicates) R4 [2, 3] [%] | HitlevelF [2, 5] | further results
CCc1c(CCNCCCCCCNCCc2ccc(OC)c(OC)c2CC)ccc(OC)c1OC.Cl [TCMDC-132047] | 61.2 | 56.6 | 45.7 | 80.2 | 3 | 17.9 | 11.5 | 7.6 | 17.6 | 0 | –
CCc1c(CCNCCCCCCNC(C)Cc2ccc3c(c2CC)OCO3)ccc(OC)c1OC.Cl (stereo not shown) [TCMDC-132052] | – | – | – | – | – | – | – | – | – | – | Average inhibition male (%) [1, 6]: 79.1%; % inhibition male (individual replicates) R1 [1, 6]: 84.5%; % inhibition male (individual replicates) R3 [1, 6]: 62.9%; % inhibition male (individual replicates) R4 [1, 6]: 90.9%; HitlevelM ([1]; number of replicates with >50% inhibition in the male readout, 2µM): 4; Average inhibition female (%) [2, 6]: 26.4%; % inhibition female (individual replicates) R1 [2, 6]: 34.8%; % inhibition female (individual replicates) R3 [2, 6]: 2.4%; % inhibition female (individual replicates) R4 [2, 6]: 23.2%; HitlevelF ([2]; number of replicates with >50% inhibition in the female readout, 2µM): 0
CCc1c(CCNCCCCCCNCCc2ccc([N+](=O)[O-])cc2)ccc(OC)c1OC.Cl [TCMDC-132066] | 38.6 | 42.7 | 1.6 | 56.2 | 2 | 24.7 | 23.1 | 5.5 | 16.3 | 1 | –
CCc1c(CCNCCCCCCNCc2ccc3c(c2CC)OCO3)ccc(OC)c1OC.Cl [TCMDC-132068] | 39.4 | 42.2 | 19.5 | 56.9 | – | 13.2 | 18.0 | -2.7 | 25.3 | – | HitlevelM [1, 7]: 1; Activity [1, 8]: 0; HitlevelF [2, 9]: 0
COc1cc2c(c(Cl)c1OC)CCN(C(=O)C(F)(F)F)CC2c1ccccc1 (stereo not shown) [TCMDC-132071] | – | – | – | – | – | – | – | – | – | – | % inhibition male (individual replicates) R1 [1, 10]: 5.3%; % inhibition male (individual replicates) R3 [1, 10]: 19.8%; % inhibition male (individual replicates) R4 [1, 10]: -8.3%; Average inhibition male (%) [1, 8]: 3.7%; % inhibition female (individual replicates) R1 [2, 10]: 4.5%; % inhibition female (individual replicates) R3 [2, 10]: -4.3%; % inhibition female (individual replicates) R4 [2, 10]: 10.0%; Average inhibition female (%) [2, 8]: 2.1%
CCc1c(CCNCCCCCCNCCc2ccc3c(c2C)OCO3)ccc2c1OCO2.Cl [TCMDC-132093] | 59.8 | 52.8 | 37.9 | 88.2 | 3 | 43.6 | 28.1 | 50.1 | 47.8 | 1 | –
COc1ccc(-c2nc3c(N)nc(N)nc3nc2C(C)C)cc1 [TCMDC-132109] | -8.8 | -5.9 | -23.4 | -14.5 | – | 17.4 | 48.8 | -20.3 | 37.3 | – | HitlevelM [1, 7]: 0; Activity [1, 8]: 0; HitlevelF [2, 9]: 0
Cl.N#Cc1c(F)cc(N2CCC(NCC[C@H](N)Cc3ccc(F)c(F)c3)CC2)cc1F [TCMDC-132121] | 31.7 | 33.4 | 31.1 | 56.8 | 1 | 20.0 | 13.8 | 22.9 | 12.3 | 0 | –
O=C(O)C(F)(F)F.O=S(=O)(NCCN1CCCC1)c1ccc(-c2cccc(CNC3Cc4ccccc4C3)c2)s1 [TCMDC-132217] | 13.9 | 10.5 | 7.6 | 38.2 | 0 | 35.5 | 25.9 | 15.7 | 46.4 | 1 | –
O=C(O)C(F)(F)F.O=S(=O)(NCCN1CCCC1)c1ccc(-c2cccc(CNC3Cc4ccccc4C3)c2)cc1F [TCMDC-132221] | 11.1 | 3.1 | – | 19.5 | 0 | 29.0 | 30.1 | 27.5 | 20.7 | 0 | –
COc1ccc(CNCc2ccc(F)cc2)cc1-c1cccc(S(=O)(=O)NCCN2CCCC2)c1.O=C(O)C(F)(F)F [TCMDC-132223] | -1.9 | -0.6 | 2.2 | -9.8 | 0 | 23.7 | 23.5 | 4.6 | 54.2 | 1 | –
CN1CCC(NCc2ccc(-c3ccc(S(=O)(=O)NCc4ccccc4)cc3)cc2)CC1.O=C(O)C(F)(F)F [TCMDC-132227] | 43.4 | 32.1 | – | 43.3 | 1 | 19.1 | 9.9 | 31.6 | 17.4 | 0 | –
O=C(O)C(F)(F)F.O=S(=O)(NCCN1CCCC1)c1ccc(-c2ccc(CNC3Cc4ccccc4C3)cc2)cc1 [TCMDC-132229] | 10.7 | 12.4 | 8.7 | 9.5 | 0 | 26.6 | 21.5 | 7.4 | 45.3 | 0 | –
CN1CCC(NCc2ccc(-c3ccc(S(=O)(=O)NCc4ccccc4)s3)cc2)CC1.O=C(O)C(F)(F)F [TCMDC-132231] | 34.4 | 32.6 | – | 32.4 | – | 9.7 | 17.2 | 1.4 | 10.3 | – | HitlevelM [1, 7]: 0; Activity [1, 8]: 0; HitlevelF [2, 9]: 0
O=C(O)C(F)(F)F.O=S(=O)(NCCN1CCCC1)c1ccc(-c2ccc(CNC3Cc4ccccc4C3)cc2)s1 [TCMDC-132234] | 17.3 | 15.3 | 1.0 | 34.9 | 0 | 29.4 | 25.4 | 5.2 | 45.9 | 0 | –
